Reference: US8470842B2, “Hydrochloride salts of 8-[{1-(3,5-Bis-trifluoromethyl)phenyl)-ethoxy}-methyl]-8-phenyl-1,7-diaza-spiro[4.5]decan-2-one and preparation process therefor” (OPKO Health, Inc., priority 2006, dated 2013)
“Also recorded” adds a separate entry of the source. Where a name gives a salt, the structure may show the parent alone.

Assays:
Assay type in all cases: physicochemical
[1] = Chemical stability tests on storage under humidity and temperature conditions
Description: Chemical stability tests were carried out on aliquots of the salt form of interest by placing a accurately weighed sample of the salt form of the compound of Formula I into a polyethylene bag. The bagged samples were enclosed in fiberboard tubes fitted with metal caps which were stored under the indicated conditions of humidity and temperature for the indicated time. Analysis was carried out by dissolving the contents of a vial and quantifying the amount of solute utilizing HPLC analysis. Where noted the aliquots were stored in capped amber vials under the conditions noted instead of polyethylene bags.
(§1) The stability of the crystalline monohydrate hydrochloride salt form of the compound of Formula I was also examined using the procedure described above for samples contained in polyethylene bags by exposing samples to the following conditions: (a) 60% relative humidity (RH) at 4° C. for twelve months, at 25° C. for eighteen months, and at 50° C. for one month; (b) 40° C. and 75% relative humidity (RH) for twelve weeks, and (c) 70° C. at ambient humidity for one hour. Samples of the crystalline monohydrate hydrochloride form I salt were also tested for one cycle of ICH UV/Vis light stress conditions.
(§2) The stability of the crystalline tosylate form I salt form of the compound of Formula I was examined by placing weighed amounts of the salt into clear glass vials and storing them under the indicated conditions. Periodically a vial was removed and the contents examined for decomposition of the compound. Accordingly, samples of the tosylate form I salt were exposed to the following conditions: (a) 40° C. and 75% relative humidity (RH) for four weeks; (b) 50° C. and ambient relative humidity for four weeks; and (c) 70° C. for one hour. Samples of the tosylate form I salt were separately tested for one cycle of ICH UV/Vis light stress conditions.

[2] = Solubility tests (equilibrated slurry, HPLC quantification); settings: for aqueous solubility: water, pH of 4 or less (more acidic)
Description: Solubility tests were conducted by placing an excess of the compound in an aliquot of the solvent of interest and allowing the slurry to equilibrate under the selected temperature conditions (typically ambient). When the solvent was water, pH was adjusted to the desired value with hydrochloric acid and sodium hydroxide. When the slurry mixture had equilibrated, the excess solids were centrifuged (water) or filtered (all other solvents) from the supernatant and the amount of compound which had been dissolved was quantified utilizing HPLC analysis of diluted aliquots of the supernatant liquid. Pharmaceutical grade solvents were employed.

[3] = ICH UV/Vis light stress conditions; settings: one cycle of ICH UV/Vis light stress conditions
Description: as §1, §2

[4] = solvent Ethanol, ambient temperature
[5] = solvent Glycerin, ambient temperature
[6] = solvent PEG 400, ambient temperature
[7] = solvent Propylene Glycol, ambient temperature

Row | Solubility (mg/ml, ambient conditions) [2, 4] [mg/mL] | Solubility (mg/ml, ambient conditions) [2, 5] [mg/mL] | Solubility (mg/ml, ambient conditions) [2, 6] [mg/mL] | Solubility (mg/ml, ambient conditions) [2, 7] [mg/mL] | aqueous solubility [2] | temperature up to which the salt is stable ([1]; 70° C. at ambient humidity for one hour, polyethylene bags) | stability under light stress [3] | stability under all tested conditions ([1]; clear glass vials, 40° C./75% RH four weeks, 50° C./ambient RH four weeks, 70° C. one hour, one cycle ICH UV/Vis light stress) | Structure (SMILES) | form change on storage ([1]; storage under ambient conditions of temperature and humidity after dehydration) | stability at ambient/room temperature over relative humidity range ([1]; ambient temperature, about 5% to about 95% relative humidity)
1 | – | – | – | – | – | – | – | – | C[C@@H](OC[C@@]1(c2ccccc2)CC[C@]2(CCC(=O)N2)CN1)c1cc(C(F)(F)F)cc(C(F)(F)F)c1 [anhydrous form I salt, (5S,8S)-8-[{(1R)-1-(3,5-Bis-(trifluoromethyl)phenyl)-ethoxy}-methyl]-8-phenyl-1,7-diazaspiro[4.5]decan-2-one] | returns the crystals to the monohydrate form | –
2 | 185 | 16 | 20 | 160 | at least 1.0 mg/ml | about 70 °C | stable under light stress conditions | – | C[C@@H](OC[C@@]1(c2ccccc2)CC[C@]2(CCC(=O)N2)CN1)c1cc(C(F)(F)F)cc(C(F)(F)F)c1 [monohydrate hydrochloride form I salt, (5S,8S)-8-[{(1R)-1-(3,5-Bis-(trifluoromethyl)phenyl)-ethoxy}-methyl]-8-phenyl-1,7-diazaspiro[4.5]decan-2-one] | – | does not decompose or dehydrate; also recorded: stable at room temperature
3 | 75 | 2.5 | 1.8 | 20 | at least 0.38 mg/ml | – | – | stable under all tested conditions | C[C@@H](OC[C@@]1(c2ccccc2)CC[C@]2(CCC(=O)N2)CN1)c1cc(C(F)(F)F)cc(C(F)(F)F)c1 [tosylate form I salt, (5S,8S)-8-[{(1R)-1-(3,5-Bis-(trifluoromethyl)phenyl)-ethoxy}-methyl]-8-phenyl-1,7-diazaspiro[4.5]decan-2-one] | – | –
